Assay results from PMC11019538, “Biophysics-Guided Lead Discovery of HBV Capsid Assembly Modifiers” (ACS Infectious Diseases, 2024).
Where two headings read alike, the source gives them in different places.

Key:
[1] = system: T lymphoblast CEM-CCRF (CEM) cells; experiment: MTT cytotoxicity, CEM cells; type: cell-based, human
Method: (§1) Human peripheral blood mononuclear (PBM), T lymphoblast CEM-CCRF (herein referred to as CEM cells), African green monkey kidney (Vero), or human liver carcinoma (HepG2) cells were tested via MTT assay using the CellTiter 96 Non-Radioactive Cell Proliferation (Promega) kit as previously described.[63]

[2] = system: African green monkey kidney (Vero) cells; experiment: MTT cytotoxicity, Vero cells; type: cell-based; details: Vero cells
Method: as §1

[3] = system: human peripheral blood mononuclear (PBM) cells; experiment: MTT cytotoxicity, PBM cells; type: cell-based
Method: as §1

[4] = system: human liver carcinoma (HepG2) cells; experiment: MTT cytotoxicity, HepG2 cells; type: cell-based; details: HepG2 cells
Method: as §1

[5] = system: HBV DNA replication in HepAD38 cells; experiment: HBV DNA replication inhibition assay in HepAD38 cells (7 days, PCR of supernatant DNA); type: cell-based, hepatitis B virus; details: HepAD38 cells; for HBV DNA inhibition (%) at 10 µM: first round of selected compounds
Method: HepAD38 cells were seeded at 50,000 cells/well in collagen-coated 96-well plates. […] The experiment lasted 7 days. On day 7, total DNA was purified from the supernatant using a commercially available kit (DNeasy 96 Blood & Tissue kit, Qiagen). The HBV DNA was amplified in a polymerase chain reaction assay using LightCycler 480 II (Roche), as previously described.[63] All samples were tested in duplicate.

[6] = trial 1, read-out: EC50, trial 1
[7] = trial 2, read-out: EC50, trial 2

Question: How did the CC50 [1] turn out when O=C(CC1C=Cc2ccccc2N1C(=O)c1ccccc1)c1ccccc1 (centres unmarked) [GT-8] was run?
Answer: > 100 µM

Question: And the CC50 [2]?
Answer: > 100 µM

Question: And the CC50 [3]?
Answer: > 100 µM

Question: And the CC50 [4]?
Answer: > 100 µM

Question: What about the “HBV DNA inhibition (%) at 10 µM” value [5] of the same compound?
Answer: < 1%

Question: Which CC50 [1] does the source give for Clc1ccccc1C=Cc1ccnc2ccccc12 [GT-3] here?
Answer: 15.4 µM

Question: What about the CC50 [2] of the same compound?
Answer: 27 µM

Question: And the CC50 [3]?
Answer: 34 µM

Question: And the CC50 [4]?
Answer: 51.2 µM

Question: What about the “HBV DNA inhibition (%) at 10 µM” value [5] of the same compound?
Answer: 40.4%

Question: How did the CC50 [1] turn out when CNc1cc(C#N)nc(-c2ccccc2)n1 [GT-28] was run?
Answer: 63.8 µM

Question: What about the CC50 [2] of the same compound?
Answer: > 100 µM

Question: What about the CC50 [3] of the same compound?
Answer: 24 µM

Question: What about the CC50 [4] of the same compound?
Answer: > 100 µM

Question: What about the “HBV DNA inhibition (%) at 10 µM” value [5] of the same compound?
Answer: < 1%

Question: Which results are given for CC(=O)N1CCC(NCc2nc(-c3ccc(C)cc3)c(-c3ccccn3)[nH]2)CC1 [GT-44]?
Answer: CC50 [1]: 63 µM; CC50 [2]: > 100 µM; % cytotoxicity (MTT) at 100 µM ([2]; 100 µM): 54%; CC50 [3]: 64 µM; CC50 [4]: 70 µM; % HBV DNA Inh. at 10 μM, trial 1 ([5]; trial 1): 37%; % HBV DNA Inh. at 10 μM, trial 2 ([5]; trial 2): 37%; EC50 [5, 6]: > 10 µM; EC50 [5, 7]: > 10 µM

Question: COc1ccc(F)c(Cn2cnc(-c3ccccc3)c2-c2c[nH]cn2)c1F [GT-38] was tested. Which CC50 [1] did it give?
Answer: 62 µM

Question: And the CC50 [2]?
Answer: 48 µM

Question: And the CC50 [3]?
Answer: > 100 µM

Question: And the “percent cytotoxicity (cell growth inhibition) at 100 µM” value [3]?
Answer: 24%

Question: What about the CC50 [4] of the same compound?
Answer: 24 µM

Question: And the “% HBV DNA Inh. at 10 μM, trial 1” value ([5]; trial 1)?
Answer: 45%

Question: What about the “% HBV DNA Inh. at 10 μM, trial 2” value ([5]; trial 2) of the same compound?
Answer: 45%

Question: And the EC50 [5, 6]?
Answer: > 10 µM

Question: What about the EC50 [5, 7] of the same compound?
Answer: > 10 µM

Question: Which results are given for Cc1ccc(-c2nc(CNC(=O)C3CCOC3)[nH]c2-c2ccccn2)cc1 (centres unmarked) [GT-43]?
Answer: CC50 [1]: 30 µM; CC50 [2]: 19 µM; CC50 [3]: 42 µM; CC50 [4]: 29 µM; % HBV DNA Inh. at 10 μM, trial 1 ([5]; trial 1): 4.7%; % HBV DNA Inh. at 10 μM, trial 2 ([5]; trial 2): 4.7%; EC50 [5, 6]: > 10 µM; EC50 [5, 7]: > 10 µM

Question: How did the CC50 [1] turn out when Cc1c(CCN)ccc2c1[nH]c1ccccc12 [GT-6] was run?
Answer: 18.7 µM

Question: What about the CC50 [2] of the same compound?
Answer: 42.6 µM

Question: What about the CC50 [3] of the same compound?
Answer: 47.7 µM

Question: What about the CC50 [4] of the same compound?
Answer: 14.9 µM

Question: What about the “HBV DNA inhibition (%) at 10 µM” value [5] of the same compound?
Answer: 27.2%

Question: NCc1cccc(Oc2ccccc2)c1 [GT-12] was tested. Which CC50 [1] did it give?
Answer: 17 µM

Question: What about the CC50 [2] of the same compound?
Answer: > 100 µM

Question: And the CC50 [3]?
Answer: > 100 µM

Question: What about the CC50 [4] of the same compound?
Answer: > 100 µM

Question: What about the “HBV DNA inhibition (%) at 10 µM” value [5] of the same compound?
Answer: < 1%

Question: What does the source list for Cc1nc(-c2ccccc2)c(Cc2ccccc2O)c(=O)[nH]1 [GT-7]?
Answer: CC50 [1]: > 100 µM; CC50 [2]: > 100 µM; CC50 [3]: > 100 µM; CC50 [4]: > 100 µM; HBV DNA inhibition (%) at 10 µM [5]: < 1%

Question: Which results are given for Cc1ccc(CC#N)c(-c2c(CC#N)ccc(C)c2C)c1C [GT-9]?
Answer: CC50 [1]: > 100 µM; CC50 [2]: > 100 µM; CC50 [3]: > 100 µM; CC50 [4]: 55.3 µM; HBV DNA inhibition (%) at 10 µM [5]: 34.6%

Question: Which CC50 [1] does the source give for Cc1nc2ccccc2nc1-c1sc2ncccc2c1O [GT-37] here?
Answer: > 100 µM

Question: And the “% cytotoxicity at 100 µM (MTT), CEM cells” value ([1]; 100 µM)?
Answer: < 1%

Question: What about the CC50 [2] of the same compound?
Answer: 19 µM

Question: What about the CC50 [3] of the same compound?
Answer: > 100 µM

Question: What about the “percent cytotoxicity (cell growth inhibition) at 100 µM” value [3] of the same compound?
Answer: 48%

Question: And the CC50 [4]?
Answer: 24 µM

Question: And the “% HBV DNA Inh. at 10 μM, trial 1” value ([5]; trial 1)?
Answer: 40%

Question: What about the “% HBV DNA Inh. at 10 μM, trial 2” value ([5]; trial 2) of the same compound?
Answer: 40%

Question: What about the EC50 [5, 6] of the same compound?
Answer: > 10 µM

Question: And the EC50 [5, 7]?
Answer: > 10 µM

Question: Which CC50 [1] does the source give for OC(Cn1cnc(-c2ccccc2)c1-c1cc2ccccc2[nH]1)c1cccnc1 (centres unmarked) [GT-41] here?
Answer: 12 µM

Question: And the CC50 [2]?
Answer: 18 µM

Question: What about the CC50 [3] of the same compound?
Answer: 27 µM

Question: And the CC50 [4]?
Answer: 10 µM

Question: What about the “% HBV DNA Inh. at 10 μM, trial 1” value ([5]; trial 1) of the same compound?
Answer: < 1%

Question: What about the “% HBV DNA Inh. at 10 μM, trial 2” value ([5]; trial 2) of the same compound?
Answer: < 1%

Question: What about the EC50 [5, 6] of the same compound?
Answer: > 10 µM

Question: And the EC50 [5, 7]?
Answer: > 10 µM

Question: With CCC(CO)Nc1nc2ccc(Cl)cc2c2ccccc12 (centres unmarked) [GT-10] as the compound, how does the CC50 [1] read?
Answer: 15.2 µM

Question: And the CC50 [2]?
Answer: 14.4 µM

Question: And the CC50 [3]?
Answer: 18.2 µM

Question: What about the CC50 [4] of the same compound?
Answer: 12.9 µM

Question: What about the “HBV DNA inhibition (%) at 10 µM” value [5] of the same compound?
Answer: < 1%

Question: CC(N)c1ccc(-c2ccc(F)cc2)cc1 (centres unmarked) [GT-29] was tested. Which CC50 [1] did it give?
Answer: 35.7 µM

Question: What about the CC50 [2] of the same compound?
Answer: 21 µM

Question: And the CC50 [3]?
Answer: 25 µM

Question: What about the CC50 [4] of the same compound?
Answer: 12.3 µM

Question: And the “HBV DNA inhibition (%) at 10 µM” value [5]?
Answer: < 1%

Question: Which CC50 [1] does the source give for O=C(NCc1cccnc1)C1CCNCC1 [GT-23] here?
Answer: > 100 µM

Question: And the CC50 [2]?
Answer: > 100 µM

Question: And the CC50 [3]?
Answer: > 100 µM

Question: And the CC50 [4]?
Answer: > 100 µM

Question: What about the “HBV DNA inhibition (%) at 10 µM” value [5] of the same compound?
Answer: < 1%

Question: With Oc1c(C(Nc2ccccc2)c2ccccc2)ccc2cccnc12 (centres unmarked) [GT-48] as the compound, how does the CC50 [1] read?
Answer: 3.4 µM

Question: What about the CC50 [2] of the same compound?
Answer: 4.5 µM

Question: What about the CC50 [3] of the same compound?
Answer: 20 µM

Question: And the CC50 [4]?
Answer: 34 µM

Question: What about the “% HBV DNA Inh. at 10 μM, trial 1” value ([5]; trial 1) of the same compound?
Answer: < 1%

Question: What about the “% HBV DNA Inh. at 10 μM, trial 2” value ([5]; trial 2) of the same compound?
Answer: < 1%

Question: What about the EC50 [5, 6] of the same compound?
Answer: > 10 µM

Question: What about the EC50 [5, 7] of the same compound?
Answer: > 10 µM

Question: Which CC50 [1] does the source give for Cc1ccc(C(N)c2ccncc2)cc1 (centres unmarked) [GT-20] here?
Answer: > 100 µM

Question: What about the CC50 [2] of the same compound?
Answer: > 100 µM

Question: What about the CC50 [3] of the same compound?
Answer: > 100 µM

Question: What about the CC50 [4] of the same compound?
Answer: > 100 µM

Question: And the “HBV DNA inhibition (%) at 10 µM” value [5]?
Answer: < 1%

Question: What does the source list for NCc1cccc(-c2ccccn2)c1 [GT-24]?
Answer: CC50 [1]: 11.3 µM; CC50 [2]: > 100 µM; CC50 [3]: > 100 µM; CC50 [4]: > 100 µM; HBV DNA inhibition (%) at 10 µM [5]: < 1%

Question: With Cc1cc(-c2ccccc2)nc(C#N)c1C#N [GT-27] as the compound, how does the CC50 [1] read?
Answer: 4 µM

Question: What about the CC50 [2] of the same compound?
Answer: 27.3 µM

Question: And the CC50 [3]?
Answer: 14.7 µM

Question: And the CC50 [4]?
Answer: 41.7 µM

Question: What about the “HBV DNA inhibition (%) at 10 µM” value [5] of the same compound?
Answer: < 1%

Question: Which CC50 [1] does the source give for CC(NC(=O)c1ccccc1)c1ccccn1 (centres unmarked) [GT-25] here?
Answer: > 100 µM

Question: What about the CC50 [2] of the same compound?
Answer: > 100 µM

Question: And the CC50 [3]?
Answer: > 100 µM

Question: What about the CC50 [4] of the same compound?
Answer: > 100 µM

Question: What about the “HBV DNA inhibition (%) at 10 µM” value [5] of the same compound?
Answer: < 1%
